Series [1] has as its system hippocampal neurons. In kind it is cell-based, rat.
Series [2] deals with hippocampal neurons. Type of series: cell-based, rat. The source holds these as a separate data set.
Series [3] deals with hippocampal neurons. Type of series: cell-based, rat. This is another data set of the same source.
Series [4] deals with hippocampal neurons. In kind it is cell-based, rat. This is another data set of the same source.
Series [5] deals with primary hippocampal neurons. Kind of series: Block of β1-40 neuronal toxicity by Substance P and analogs (therapeutic efficacy). Type of series: cell-based, rat.
For series [6] the following is noted: in vivo; cited from earlier work.

Peptide text beside a SMILES is read from it.

Consider `CSCC[C@H](NC(=O)[C@H](CC(C)C)NC(=O)CNC(=O)[C@H](Cc1ccc(O)cc1)NC(=O)[C@H](Cc1ccccc1)NC(=O)[C@H](CCCCN)NC(=O)[C@H](CC(N)=O)NC(=O)[C@@H]1CCCN1C(=O)[C@H](CC(=O)O)NC(=O)[C@H](C)NC(=O)[C@@H]1CCC(=O)N1)C(N)=O` [Physalaemin] (HELM PEPTIDE1{[Glp].A.D.P.N.K.F.Y.G.L.M.[am]}$$$$V2.0), for which, in the series on hippocampal neurons [1], the “% Toxic Response” value was 0 ± 7% and the “neurotoxic activity / late neuronal survival (in words)” value is on record as “no effect on early or late neuronal survival”. Besides, in the series on hippocampal neurons [2], the “% Trophic Response” value is 0 ± 4% and the “neurotrophic activity / early neuronal survival (in words)” value is on record as “no effect on early or late neuronal survival”. Also, the “reversal of late toxic response to β1-40” value with hippocampal neurons [3] is on record as “almost completely reversed”. Also, in the series on hippocampal neurons [4], the “reversal of early trophic response to β1-40” value was “almost completely reversed”.

As to Sub P, Free Acid, the “Therapeutic Efficacy (%): ability to block neuronal toxicity of β1-40” value (from here on “Therapeutic Efficacy (%): ability”) in series [5] stood at 53%.

Regarding `CSCC[C@H](NC(=O)[C@H](CC(C)C)NC(=O)CNC(=O)[C@@H](NC(=O)[C@H](Cc1ccccc1)NC(=O)[C@H](CCC(N)=O)NC(=O)[C@H](CC(=O)O)NC(=O)[C@H](CO)NC(=O)[C@H](CCCCN)NC(=O)[C@@H]1CCCN1C(=O)[C@@H](NC(=O)[C@@H](N)CC(=O)O)C(C)C)C(C)C)C(N)=O` [kassinin] (H-DVPKSDQFVGLM-NH2), the “reversal of late toxic response to β1-40” value with hippocampal neurons [3] is “did not show significant effects”. The “reversal of early trophic response to β1-40” value in the series with hippocampal neurons [4] is reported as “did not show significant effects”.

For `CC(C)C[C@H](NC(=O)[C@H](CC(C)C)NC(=O)[C@@H](Cc1c[nH]c2ccccc12)NC(=O)[C@H](Cc1ccccc1)NC(=O)[C@@H](Cc1c[nH]c2ccccc12)NC(=O)[C@H](CCC(N)=O)NC(=O)[C@H](CCC(N)=O)NC(=O)[C@@H]1CCCN1C(=O)[C@H](CCCCN)NC(=O)[C@@H]1CCCN1C(=O)[C@H](N)CCCNC(=N)N)C(N)=O` [spantide, [D-Arg^1, D-Trp^7,9, Leu^11]-substance P] (HELM PEPTIDE1{[dR].P.K.P.Q.Q.[dW].F.[dW].L.L.[am]}$$$$V2.0), in the series with hippocampal neurons [1], the “% Toxic Response” value is reported as 118 ± 10%; the “neurotoxic activity / late neuronal survival (in words)” value is “significant early neurotrophic and late neurotoxic effects”. In addition, in the series on hippocampal neurons [2], the “% Trophic Response” value was 120 ± 8%; the “neurotrophic activity / early neuronal survival (in words)” value was “significant early neurotrophic and late neurotoxic effects”.

In the case of Sub P, Methyl Ester, the “Therapeutic Efficacy (%): ability” value in series [5] is given as 71%.

On to `CSCC[C@H](NC(=O)[C@H](CC(C)C)NC(=O)CNC(=O)[C@H](Cc1ccccc1)NC(=O)[C@H](Cc1ccccc1)NC(=O)[C@H](CCC(N)=O)NC(=O)[C@H](CCC(N)=O)NC(=O)[C@@H]1CCCN1C(=O)[C@H](CCCCN)NC(=O)[C@@H]1CCCN1C(=O)[C@@H](N)CCCN=C(N)N)C(N)=O` [Substance P], for which the “crossing of the blood-brain barrier” value in series [6] is “known to cross the blood-brain barrier”.

In the case of `CC[C@H](C)[C@H](NC(=O)[C@H](Cc1ccccc1)NC(=O)[C@H](C)NC(=O)[C@H](CC(=O)O)NC(=O)[C@H](CCCCN)NC(=O)[C@H](CO)NC(=O)[C@@H]1CCCN1C(=O)[C@@H]1CCC(=O)N1)C(=O)NCC(=O)N[C@@H](CC(C)C)C(=O)N[C@@H](CCSC)C(N)=O` [Eledoisin] (HELM PEPTIDE1{[Glp].P.S.K.D.A.F.I.G.L.M.[am]}$$$$V2.0), in the series with hippocampal neurons [1], the “% Toxic Response” value was 0 ± 6 and the “neurotoxic activity / late neuronal survival (in words)” value is “no effect on early or late neuronal survival”. Further, in the series with hippocampal neurons [2], the “% Trophic Response” value is listed as 0 ± 11 and the “neurotrophic activity / early neuronal survival (in words)” value is “no effect on early or late neuronal survival”. In addition, in the series with hippocampal neurons [3], the “reversal of late toxic response to β1-40” value is reported as “did not show significant effects”. Also, the “reversal of early trophic response to β1-40” value with hippocampal neurons [4] is reported as “did not show significant effects”.

For the compound `CSCC[C@H](NC(=O)[C@H](CC(C)C)NC(=O)CNC(=O)[C@H](Cc1ccccc1)N(C)C(=O)[C@H](Cc1ccccc1)NC(=O)[C@H](CC(=O)O)NC(=O)CCC(=O)O)C(N)=O` [[Succinyl-Asp^6, Me-Phe^8]-Sub P (6-11)] (HELM PEPTIDE1{[O=C(O)CCC(=O)[*:2]].D.F.[meF].G.L.M.[am]}$$$$V2.0), the “Therapeutic Efficacy (%): ability” value in series [5] stood at 47%.

The record behind these values is patent US5876948A (priority 1991, dated 1999).
